According to PubChem BioAssay (NCI):
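Results reflect a 48-hour exposure of cells in 96-well plates to compound at five concentrations. TGI: concentration producing complete growth inhibition.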

Key:
Assay in all cases: NCI tumour cell line growth inhibition, 48 h
[1] = system: ACHN renal
[2] = system: HT29 colon
[3] = system: OVCAR-3 ovarian
[4] = system: OVCAR-4 ovarian
[5] = system: OVCAR-8 ovarian
[6] = system: TK-10 renal
[7] = system: RPMI-8226 leukemia
[8] = system: SK-OV-3 ovarian

`COc1cc(C(C)c2cc3c(cc2OCCNC(=O)COc2cc4c(cc2C(C)c2cc(OC)c(OC)c(OC)c2)OCO4)OCO3)cc(OC)c1OC` (stereo not drawn) was tested, and the TGI [1] was > 100 µM, the TGI [2] was > 100 µM and the TGI [3] was > 100 µM. For the same molecule, the TGI [4] was > 100 µM, the TGI [5] was > 100 µM and the TGI [6] was > 100 µM.
For `COc1ccc2c(c1)NC1(O)c3ccccc3C(=O)C21O` (stereo not drawn), the TGI [1] was > 100 µM, the TGI [2] was > 100 µM and the TGI [3] was > 100 µM. For the same molecule, the TGI [5] was > 100 µM, the TGI [7] was > 100 µM and the TGI [8] was > 100 µM. The TGI [6] was > 100 µM.
In the case of `N/N=C(\c1nc2ccc(Cl)cc2[nH]c1=O)C(O)c1ccc(Cl)c(Cl)c1` (stereo not drawn), the TGI [1] is reported as > 100 µM, the TGI [2] is reported as > 100 µM and the TGI [3] is reported as > 100 µM. The TGI [4] was 87.8 µM, the TGI [5] was > 100 µM and the TGI [7] was > 100 µM. For the same molecule, the TGI [8] was > 100 µM and the TGI [6] was > 100 µM.
For `CCCN(CCC)C(=O)c1nc(N)nc(-c2ccc(OC)cc2)c1-c1ccc(OC)cc1`, the TGI [1] was > 100 µM, the TGI [2] was > 100 µM and the TGI [3] was > 100 µM. For the same molecule, the TGI [4] was > 100 µM, the TGI [5] was > 100 µM and the TGI [7] was > 100 µM. For the same molecule, the TGI [8] was > 100 µM and the TGI [6] was > 100 µM.
For `CC(C)(C)N/N=C(\C(=O)Nc1nc(=S)[nH][nH]1)C1C(=O)Nc2ccccc2S1=O` (stereo not drawn), the TGI [1] was > 100 µM, the TGI [2] was > 100 µM and the TGI [3] was > 100 µM. The TGI [4] was > 100 µM, the TGI [5] was > 100 µM and the TGI [7] was > 100 µM. For the same molecule, the TGI [8] was > 100 µM and the TGI [6] was > 100 µM.
`O=C(Nc1ccccc1-c1nn(CN2CCNCC2)c(=S)n(CN2CCNCC2)c1=O)C(F)(F)F` showed a TGI [1] of 63.9 µM, a TGI [2] of 57.5 µM and a TGI [3] of 49.9 µM. For the same molecule, the TGI [4] was 35.2 µM, the TGI [5] was 53.5 µM and the TGI [8] was 51.4 µM. It also gave a TGI [6] of 61.1 µM.
`Cc1nc(/C=C2\C(=O)C=Cc3ccccc32)c(O)o1` was tested, and the TGI [1] was > 100 µM, the TGI [2] was > 100 µM and the TGI [4] was > 100 µM. For the same molecule, the TGI [5] was > 100 µM and the TGI [7] was > 100 µM.
With `CC(=O)NNc1nc(C)c(C(=O)/C=C/c2ccc(Cl)cc2)s1` the TGI [1] was > 100 µM, the TGI [2] was > 100 µM and the TGI [3] was > 100 µM. The TGI [5] was > 100 µM, the TGI [7] was > 100 µM and the TGI [8] was > 100 µM. The TGI [6] was > 100 µM.
With `COc1ccc2oc(-c3ccc(OC)c(OC)c3OC)cc(=O)c2c1` the TGI [1] was > 100 µM, the TGI [2] was > 100 µM and the TGI [3] was > 100 µM. For the same molecule, the TGI [4] was > 100 µM, the TGI [7] was 43 µM and the TGI [8] was > 100 µM. The TGI [6] was > 100 µM.
With `O=S(=O)(N=NC=C1c2ccccc2N(O)c2ccccc21)c1ccc(Cl)cc1` the TGI [1] was > 100 µM, the TGI [2] was > 100 µM and the TGI [3] was > 100 µM. For the same molecule, the TGI [4] was > 100 µM, the TGI [5] was > 100 µM and the TGI [7] was > 100 µM. The TGI [8] was > 100 µM and the TGI [6] was > 100 µM.
With `COC1CCC(OC)C(C2(C3CC(OC)CCC3OC)OC(=O)c3ccccc32)C1` (stereo not drawn) the TGI [1] was > 100 µM, the TGI [2] was > 100 µM and the TGI [3] was > 100 µM. The TGI [4] was > 100 µM, the TGI [5] was > 100 µM and the TGI [7] was > 100 µM. For the same molecule, the TGI [8] was > 100 µM and the TGI [6] was > 100 µM.
`COC(=O)/C(C#N)=C(\N)C(Cl)(Cl)Cl` gave a TGI [1] of 6.6 µM, a TGI [3] of 12.9 µM and a TGI [4] of 8.56 µM. The TGI [5] was 4.68 µM, the TGI [7] was 6.75 µM and the TGI [8] was 5.3 µM. For the same molecule, the TGI [6] was 7.55 µM.
`COC(=O)C1CC(OC(C)=O)C=C2C(=O)CCC21` (stereo not drawn) showed a TGI [1] of 46.3 µM, a TGI [3] of 31.2 µM and a TGI [4] of 45.1 µM. It also gave a TGI [5] of 37.6 µM, a TGI [7] of 57.7 µM and a TGI [8] of 69.9 µM. For the same molecule, the TGI [6] was 77.5 µM.
In the case of `CCOC(=O)C12C(C(=O)OC)=C(C)N(NC(=O)Nc3ccccc3)C1(N)N(NC(=O)Nc1ccccc1)C(C)=C2C(=O)OC` (stereo not drawn), the TGI [1] is reported as > 100 µM, the TGI [2] is reported as 52.9 µM and the TGI [3] is reported as 60.2 µM. For the same molecule, the TGI [4] was > 100 µM, the TGI [5] was > 100 µM and the TGI [7] was 74 µM. The TGI [8] was > 100 µM and the TGI [6] was > 100 µM.
`Cc1ccc(S(=O)(=O)c2ccc(C)cc2[N+](=O)[O-])cc1` was tested, and the TGI [1] was > 100 µM, the TGI [2] was > 100 µM and the TGI [3] was > 100 µM. For the same molecule, the TGI [4] was > 100 µM, the TGI [7] was > 100 µM and the TGI [8] was > 100 µM. For the same molecule, the TGI [6] was > 100 µM.
For `CC1=NOC(=O)/C1=C/c1ccc([N+](=O)[O-])cc1`, the TGI [1] was > 100 µM, the TGI [2] was > 100 µM and the TGI [3] was > 100 µM. For the same molecule, the TGI [4] was > 100 µM, the TGI [5] was > 100 µM and the TGI [8] was > 100 µM. The TGI [6] was > 100 µM.
With `C=CCC1(C(=O)OC(C)(C)C)C(OC)=C(C(=O)OC(C)(C)C)C2C1C(C(=O)OC(C)(C)C)=C(OC)C2(CC=C)C(=O)OC(C)(C)C` (stereo not drawn) the TGI [1] was > 100 µM, the TGI [3] was > 100 µM and the TGI [5] was > 100 µM. The TGI [7] was > 100 µM, the TGI [8] was > 100 µM and the TGI [6] was > 100 µM.
Work on `CC1CC(C)C2OC2(C)C[C@H](C)C(=O)NC(C)C(=O)N(C)[C@H](Cc2c(Br)[nH]c3ccccc23)C(=O)N[C@@H](c2ccc(O)cc2)CC(=O)O1` (stereo partly drawn) yielded a TGI [1] of 27.2 µM, a TGI [3] of 9.61 µM and a TGI [4] of 1.09 µM. The TGI [5] was > 52.7 µM, the TGI [7] was 5.43 µM and the TGI [8] was 3.04 µM. The TGI [6] was 5.44 µM.
With `Cc1cc(C)c(C(=O)O)c(SSc2cc(C)cc(C)c2C(=O)O)c1` the TGI [1] was > 100 µM, the TGI [2] was > 100 µM and the TGI [4] was > 100 µM. The TGI [5] was > 100 µM, the TGI [8] was > 100 µM and the TGI [6] was > 100 µM.
Work on `NCCNC(=O)c1cccc2cc3ccccc3nc12` yielded a TGI [2] of 6.5 µM, a TGI [3] of 15.4 µM and a TGI [4] of 15.2 µM. For the same molecule, the TGI [5] was > 22.2 µM, the TGI [7] was > 100 µM and the TGI [8] was > 39 µM. For the same molecule, the TGI [6] was 21.2 µM.
`Cc1ccc2nc3cc(C)c(=O)cc-3sc2c1` was tested, and the TGI [1] was > 100 µM, the TGI [2] was > 100 µM and the TGI [3] was > 100 µM. For the same molecule, the TGI [4] was > 100 µM, the TGI [5] was > 100 µM and the TGI [8] was > 100 µM. The TGI [6] was > 100 µM.
